Assay results as given in patent US6455554B1, “Oxopyridinyl pharmaceutical compositions and methods for use” (Targacept, Inc., priority 1999, dated 2002).
Several values for one entry are separate records, joined by “and”; a condition that tells them apart may be missing. Equal entries are not always repeated.

Assays:
Rat brain synaptosomes = experiment: Neurotransmitter release from brain synaptosomes; type: cell-based; details: 10 M of ligand, percentage of release with 10 M (S)-(-)-nicotine or 300 MTMA
Method: Neurotransmitter Release from Brain Synaotosomes
Neurotransmitter release was measured using techniques similar to those previously published (Bencherif M, et al.:. JPET 279: 1413-1421, 1996).
Rat brain synaptosomes were prepared as follows: Female Sprague Dawley rats (100-200 g) were killed by decapitation after anesthesia with 70% CO2. Brains are dissected, and hippocampus, striatum, and thalamus isolated, and homogenized in 0.32 M sucrose containing 5 mM HEPES pH 7.4 using a glass/glass homogenizer. The tissue was then centrifuged for 1000×g for 10 minutes and the pellet discarded. The supernatant was centrifuged at 12000×g for 20 minutes. The resultant pellet was re-suspended in perfusion buffer (128 mM NaCl, 1.2 mM KH2PO4, 2.4 mM KCl, 3.2 mM CaCl2, 1.2 mM MgSO4, 25 mM HEPES, 1 mM Ascorbic acid, 0.01 mM pargyline HCl and 10 mM glucose pH 7.4) and centrifuged for 15 minutes at 25000×g. The final pellet was resuspended in perfusion buffer and placed in a water bath (37° C.) for 10 minutes. Radiolabeled neurotransmitter is added (30 L ^3H DA, 20 L ^3H NE, 10 L ^3H glutamate) to achieve a final concentration of 100 nM, vortexed and placed in a water bath for additional 10 minutes. Tissue-loaded filters is placed onto 11-mm diameter Gelman A/E filters on an open-air support. After a 10-minute wash period, fractions are collected to establish the basal release and agonist applied in the perfusion stream. Further fractions were collected after agonist application to re-establish the baseline. The perfusate was collected directly into scintillation vials and released radioactivity was quantified using conventional liquid scintillation techniques. Release of neurotransmitter was determined in the presence of […] of various ligands and was expressed as a percentage of release obtained with a concentration of 10 M (S)-(−)-nicotine or 300 MTMA resulting in maximal effects.

[1] = target: T1, muscle-type nicotinic acetylcholine receptors (Homo sapiens, UniProt P02708+P07510+Q07001); experiment: Determination of interaction with muscle receptors; type: cell-based; set-up: Emax: dose or concentration left out as unconfirmed; details: for Emax: read-out: Emax at muscle-type receptors
T1 construct: cell preparations expressing muscle-type nicotinic acetylcholine receptors; endogenous in cells
T1 sequence (P02708 21-457): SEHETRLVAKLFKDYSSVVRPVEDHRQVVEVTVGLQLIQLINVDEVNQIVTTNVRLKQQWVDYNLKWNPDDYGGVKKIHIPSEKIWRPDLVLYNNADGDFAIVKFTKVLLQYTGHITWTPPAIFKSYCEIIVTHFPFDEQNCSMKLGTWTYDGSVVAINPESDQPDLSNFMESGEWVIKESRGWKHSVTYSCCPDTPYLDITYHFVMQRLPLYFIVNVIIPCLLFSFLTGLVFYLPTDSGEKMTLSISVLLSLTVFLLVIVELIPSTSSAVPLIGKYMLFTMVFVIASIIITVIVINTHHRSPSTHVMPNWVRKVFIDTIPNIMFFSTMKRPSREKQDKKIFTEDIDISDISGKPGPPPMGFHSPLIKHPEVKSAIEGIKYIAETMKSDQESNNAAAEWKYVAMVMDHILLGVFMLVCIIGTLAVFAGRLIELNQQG
T1 sequence (P11230 24-501 partner): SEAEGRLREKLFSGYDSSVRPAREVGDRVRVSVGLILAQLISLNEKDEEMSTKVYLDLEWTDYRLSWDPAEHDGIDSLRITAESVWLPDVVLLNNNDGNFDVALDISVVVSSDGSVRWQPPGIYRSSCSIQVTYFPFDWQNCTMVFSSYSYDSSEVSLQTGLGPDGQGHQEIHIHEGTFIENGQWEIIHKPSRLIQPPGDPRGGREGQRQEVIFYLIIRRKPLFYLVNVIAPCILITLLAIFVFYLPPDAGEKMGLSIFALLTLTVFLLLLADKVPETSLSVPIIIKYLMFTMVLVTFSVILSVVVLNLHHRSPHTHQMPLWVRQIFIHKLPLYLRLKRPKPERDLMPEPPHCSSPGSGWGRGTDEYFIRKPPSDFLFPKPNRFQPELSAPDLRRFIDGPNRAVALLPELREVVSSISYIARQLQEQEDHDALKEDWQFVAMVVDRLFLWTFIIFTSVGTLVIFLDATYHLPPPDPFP
T1 sequence (Q07001 22-517): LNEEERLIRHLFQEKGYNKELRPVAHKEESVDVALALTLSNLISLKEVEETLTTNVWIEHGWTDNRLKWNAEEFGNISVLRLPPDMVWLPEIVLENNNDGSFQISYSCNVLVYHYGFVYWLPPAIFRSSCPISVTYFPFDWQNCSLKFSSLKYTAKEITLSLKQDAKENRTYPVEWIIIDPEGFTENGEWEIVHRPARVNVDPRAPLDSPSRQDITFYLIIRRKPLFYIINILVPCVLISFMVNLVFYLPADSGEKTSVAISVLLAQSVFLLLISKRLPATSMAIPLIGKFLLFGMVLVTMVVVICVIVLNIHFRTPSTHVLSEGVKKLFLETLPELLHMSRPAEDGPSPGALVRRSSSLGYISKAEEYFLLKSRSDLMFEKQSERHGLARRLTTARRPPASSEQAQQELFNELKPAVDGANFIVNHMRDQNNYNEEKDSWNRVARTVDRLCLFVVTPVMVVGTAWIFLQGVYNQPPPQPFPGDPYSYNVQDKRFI
T1 sequence (P07510 23-517): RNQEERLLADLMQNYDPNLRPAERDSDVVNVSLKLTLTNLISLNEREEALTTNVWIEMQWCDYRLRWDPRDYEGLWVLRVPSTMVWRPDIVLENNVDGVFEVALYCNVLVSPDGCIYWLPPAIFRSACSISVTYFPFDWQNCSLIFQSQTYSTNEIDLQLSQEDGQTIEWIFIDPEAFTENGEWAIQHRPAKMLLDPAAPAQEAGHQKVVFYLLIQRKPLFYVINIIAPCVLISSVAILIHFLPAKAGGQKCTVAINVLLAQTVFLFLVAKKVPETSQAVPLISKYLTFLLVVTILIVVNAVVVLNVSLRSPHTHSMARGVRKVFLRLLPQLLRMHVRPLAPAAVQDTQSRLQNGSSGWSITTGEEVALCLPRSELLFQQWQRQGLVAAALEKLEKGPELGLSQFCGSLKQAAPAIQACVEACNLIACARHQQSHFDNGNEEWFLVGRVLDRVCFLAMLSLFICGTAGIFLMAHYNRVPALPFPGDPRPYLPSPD
From the text: The compounds of the present invention, when employed in effective amounts in accordance with the method of the present invention, lack the ability to elicit activation of nicotinic receptors of human muscle to any significant degree. […] Generally, typical preferred compounds useful in carrying the present invention activate isotopic rubidium ion flux by less than 10 percent, often by less than 5 percent, of that maximally provided by S(−) nicotine.
Determination of Interaction with Muscle Receptors
(§1) The determination of the interaction of the compounds with muscle receptors was carried out in accordance with the techniques described in U.S. Pat. No. 5,597,919 to Dull et al. The maximal activation for individual compounds (Emax) was determined as a percentage of the maximal activation induced by (S)-(−)-nicotine. Reported Emax values represent the amount released relative to (S)-(−)-nicotine on a percentage basis.

[2] = tested on: ganglionic-type nicotinic acetylcholine receptors; experiment: Determination of interaction with ganglion receptors; type: cell-based; details: at a concentration of 100 uM; relative to (S)-(-)-nicotine
From the text: By this is meant that a particular dose of compound resulting in prevention and/or treatment of a CNS disorder, is essentially ineffective in eliciting activation of certain ganglionic-type nicotinic receptors. […] As such, such compounds have poor ability to cause isotopic rubidium ion flux through nicotinic receptors in cell preparations derived from the adrenal gland. Generally, typical preferred compounds useful in carrying out the present invention activate isotopic rubidium ion flux by less than 10 percent, often by less than 5 percent, of that maximally provided by S(−) nicotine.
Determination of Interaction with Ganglion Receptors
as §1, with “ganglionic” for “muscle”

[3] = tested on: nicotinic cholinergic receptors that modulate dopamine release; experiment: Determination of dopamine release; type: cell-based
Method: Determination of Dopamine Release
Dopamine release was measured using the techniques described in U.S. Pat. No. 5,597,919 to Dull et al. Release is expressed as a percentage of release obtained with a concentration of (S)-(−)-nicotine resulting in maximal effects. Reported EC50 values are expressed in nM, and Emax values represent the amount released relative to (S)-(−)-nicotine on a percentage basis.

nicotinic receptors = experiment: Determination of rubidium ion release (rubidium ion flux assay); type: cell-based
Method: Determination of Rubidium Ion Release
Rubidium release was measured using the techniques described in Bencherif et al., JPET, 279: 1413-1421 (1996). Reported EC50 values are expressed in nM, and Emax values represent the amount of rubidium ion released relative to 300 uM tetramethylammonium ion, on a percentage basis.

CNS nicotinic receptors = CNS nicotinic receptors (Rattus norvegicus, UniProt P09483+P12390); experiment: Determination of binding to relevant receptor sites; details: inhibition constants calculated from IC50 values by the method of Cheng et al.
Chain of CNS nicotinic receptors (P09483 31-630): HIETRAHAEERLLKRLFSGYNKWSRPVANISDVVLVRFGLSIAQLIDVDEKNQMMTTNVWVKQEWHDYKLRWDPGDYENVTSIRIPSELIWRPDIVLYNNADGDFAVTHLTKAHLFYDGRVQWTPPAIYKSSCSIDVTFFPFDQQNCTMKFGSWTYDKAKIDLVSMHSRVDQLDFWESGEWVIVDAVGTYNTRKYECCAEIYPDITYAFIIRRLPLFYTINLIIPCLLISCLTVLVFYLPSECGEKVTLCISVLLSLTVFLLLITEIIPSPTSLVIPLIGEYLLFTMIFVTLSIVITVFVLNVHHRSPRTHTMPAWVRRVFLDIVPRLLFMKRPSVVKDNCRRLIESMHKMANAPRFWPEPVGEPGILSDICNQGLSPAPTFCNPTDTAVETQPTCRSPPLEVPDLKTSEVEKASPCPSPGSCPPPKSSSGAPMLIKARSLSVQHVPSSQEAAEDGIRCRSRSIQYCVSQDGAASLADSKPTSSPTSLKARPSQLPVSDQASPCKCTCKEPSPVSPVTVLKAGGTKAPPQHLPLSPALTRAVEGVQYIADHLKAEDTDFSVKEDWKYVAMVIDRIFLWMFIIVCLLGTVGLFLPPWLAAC
Chain of CNS nicotinic receptors (P12390 25-500): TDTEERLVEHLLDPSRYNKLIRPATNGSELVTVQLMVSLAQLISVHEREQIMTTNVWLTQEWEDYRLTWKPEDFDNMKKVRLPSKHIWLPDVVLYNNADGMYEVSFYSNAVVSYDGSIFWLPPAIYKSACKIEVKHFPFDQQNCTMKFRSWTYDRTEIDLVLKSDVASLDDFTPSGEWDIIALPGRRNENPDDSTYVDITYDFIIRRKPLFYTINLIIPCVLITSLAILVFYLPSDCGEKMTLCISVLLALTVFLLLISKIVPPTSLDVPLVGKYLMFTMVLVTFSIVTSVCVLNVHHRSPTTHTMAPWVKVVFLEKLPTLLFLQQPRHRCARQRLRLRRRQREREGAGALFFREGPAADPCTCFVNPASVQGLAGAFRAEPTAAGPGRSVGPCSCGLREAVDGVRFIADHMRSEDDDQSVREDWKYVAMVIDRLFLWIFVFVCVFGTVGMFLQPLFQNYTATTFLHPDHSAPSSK
Method: Determination of Binding to Relevant Receptor Sites
Binding of the compounds to relevant receptor sites was determined in accordance with the techniques described in U.S. Pat. No. 5,597,919 to Dull et al. Inhibition constants (Ki values), reported in nM, were calculated from the IC50 values using the method of Cheng et al., Biochem, Pharmacol. 22:3099 (1973).

[4] = amount released relative to (S)-(-)-nicotine
[5] = rubidium ion released relative to 300 uM tetramethylammonium ion
[6] = at a concentration of 100 uM, relative to (S)-(-)-nicotine

Row | SMILES | Emax (Rat brain synaptosomes) | Emax [1] | Emax at ganglionic-type receptors [2] | EC50 [3] | Emax [3, 4] | EC50 (nicotinic receptors) | Emax (nicotinic receptors; [5]) | other results
1 | CNC(C)CC=Cc1cncc(O)c1 (centres unmarked) [Sample No. 13, (4E)-N-methyl-5-(3-(5-hydroxypyridin)yl)-4-penten-2-amine sesquioxalate] | 80% | 21% | 12% |  |  |  |  | 
2 | CN[C@@H](C)C/C=C/c1cc(OC(C)C)c[n+]([O-])c1 [Sample No. 5] | 19% | 7% | 8% |  |  |  |  | 
3 | CNCC/C=C/c1cncc(C(=O)NCc2ccccc2)c1 [Sample No. 2, (3E)-N-methyl-N-[3-(5-(N-benzylcarboxamido)pyridin)yl]-3-buten-1-amine] |  |  |  | 100 µM | 12% |  |  | 
4 | CNC(C)CC=Cc1cncc(C(F)(F)F)c1 (centres unmarked) [Sample No. 10, (4E)-N-methyl-5-(3-(5-trifluoromethylpyridin)yl)-4-penten-2-amine] | 50% | 0% | 0% |  |  | 100 µM | 0% | 
5 | CNCC/C=C/c1cncc(OCC(C)C)c1 [Sample No. 6, (3E)-N-methyl-4-(3-(5-isobutoxypyridin)yl)-3-buten-1-amine hemigalactarate] |  | 6% | 13% | 15 µM | 25% | 1 µM | 15% | 
6 | CCSc1cncc(/C=C/CCNC)c1 [Sample No. 9, (3E)-N-methyl-4-(3-(5-ethylthiopyridin)yl)-3-buten-1-amine hemigalactarate] |  | 7% | 22% | 0.875 µM | 39% | 0.191 µM | 40% | 
7 | CNC(C)CC=Cc1ccc[n+]([O-])c1 (centres unmarked) [Sample No. 8, (4E)-N-methyl-5-(3-(1-oxopyridin)yl)-4-penten-2-amine] | 9% | 0% | 8% |  |  |  |  | 
8 | CC(N)CC=Cc1cncc(OC(C)C)c1 (centres unmarked) [Sample No. 12, (4E)-5-(3-(5-isopropoxypyridin)yl)-4-penten-2-amine hemigalactarate] | 32% |  | 5% |  |  |  |  | Emax at 100 µM [1, 6]: 13%
9 | CNCC/C=C/c1cnc(N)c([N+](=O)[O-])c1 [Sample No. 1, (3E)-N-methyl-4-[3-(5-nitro-6-aminopyridin)yl]-3-buten-1-amine] |  |  | 11% and 16% |  |  | 26 µM |  | Ki (CNS nicotinic receptors): 0.003 µM; Emax for dopamine release [3, 4]: 0%; neurotransmitter release Emax (Rat brain synaptosomes): 33%; Emax in the rubidium ion flux assay (nicotinic receptors; [5]): 22%; Emax at muscle-type receptors [1, 6]: 10% and 11%
